Legend:
Glucocorticoid receptor = biological target: T1, Glucocorticoid receptor (Homo sapiens, UniProt P04150)
T1 sequence (P04150 whole entry): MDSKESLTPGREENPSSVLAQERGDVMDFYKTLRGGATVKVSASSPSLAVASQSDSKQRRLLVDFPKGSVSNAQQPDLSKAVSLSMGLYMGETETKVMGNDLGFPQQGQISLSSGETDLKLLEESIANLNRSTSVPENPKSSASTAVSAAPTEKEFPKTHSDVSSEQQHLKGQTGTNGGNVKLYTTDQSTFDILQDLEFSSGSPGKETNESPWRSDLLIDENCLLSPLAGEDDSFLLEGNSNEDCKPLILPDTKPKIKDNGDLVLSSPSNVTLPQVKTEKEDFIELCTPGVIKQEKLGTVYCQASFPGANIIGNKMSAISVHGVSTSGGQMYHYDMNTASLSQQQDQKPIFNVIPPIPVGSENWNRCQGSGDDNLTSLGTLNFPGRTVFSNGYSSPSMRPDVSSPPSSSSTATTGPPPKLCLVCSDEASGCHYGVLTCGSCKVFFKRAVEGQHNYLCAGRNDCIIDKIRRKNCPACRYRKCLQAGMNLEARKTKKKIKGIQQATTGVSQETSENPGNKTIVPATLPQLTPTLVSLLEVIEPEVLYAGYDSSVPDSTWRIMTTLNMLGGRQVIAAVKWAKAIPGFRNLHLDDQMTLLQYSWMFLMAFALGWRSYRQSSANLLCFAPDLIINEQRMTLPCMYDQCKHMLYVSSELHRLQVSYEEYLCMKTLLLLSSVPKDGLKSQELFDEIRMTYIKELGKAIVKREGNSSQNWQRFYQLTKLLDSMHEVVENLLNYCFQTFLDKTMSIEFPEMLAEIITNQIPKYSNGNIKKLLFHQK

[1] = biological target: Beta-1 adrenergic receptor (Homo sapiens, UniProt P08588); format: functional
Chain of Beta-1 adrenergic receptor (P08588 whole entry): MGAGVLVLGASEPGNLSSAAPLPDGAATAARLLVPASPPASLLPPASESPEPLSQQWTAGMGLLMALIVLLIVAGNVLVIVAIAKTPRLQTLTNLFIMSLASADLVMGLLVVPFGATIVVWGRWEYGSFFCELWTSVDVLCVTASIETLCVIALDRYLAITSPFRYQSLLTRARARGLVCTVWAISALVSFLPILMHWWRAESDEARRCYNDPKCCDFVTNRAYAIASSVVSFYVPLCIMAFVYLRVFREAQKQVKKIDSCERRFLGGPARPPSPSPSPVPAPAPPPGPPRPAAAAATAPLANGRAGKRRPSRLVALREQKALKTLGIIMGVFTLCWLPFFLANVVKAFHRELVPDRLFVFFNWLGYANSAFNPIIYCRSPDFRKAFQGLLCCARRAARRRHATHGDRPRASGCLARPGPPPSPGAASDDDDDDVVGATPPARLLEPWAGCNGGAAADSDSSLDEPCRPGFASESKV

[2] = biological target: T2, 5-hydroxytryptamine receptor 1A (Homo sapiens, UniProt P08908); format: functional, cell-based
T2 sequence (P08908 whole entry): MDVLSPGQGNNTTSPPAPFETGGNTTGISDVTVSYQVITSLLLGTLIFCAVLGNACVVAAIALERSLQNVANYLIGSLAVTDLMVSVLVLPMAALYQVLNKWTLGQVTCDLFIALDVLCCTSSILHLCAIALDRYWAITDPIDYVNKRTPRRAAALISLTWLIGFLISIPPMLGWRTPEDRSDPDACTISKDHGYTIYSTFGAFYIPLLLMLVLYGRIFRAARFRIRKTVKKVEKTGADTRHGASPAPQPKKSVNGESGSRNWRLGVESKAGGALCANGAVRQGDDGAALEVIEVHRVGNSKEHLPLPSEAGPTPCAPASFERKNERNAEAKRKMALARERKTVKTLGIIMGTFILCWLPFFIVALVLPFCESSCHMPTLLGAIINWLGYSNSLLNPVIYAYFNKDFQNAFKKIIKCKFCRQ

[3] = biological target: T2, 5-hydroxytryptamine receptor 1A; format: functional, cell-based; remark: listed apart in the source
D(3) dopamine receptor = D(3) dopamine receptor (Homo sapiens, UniProt P35462)
Chain of D(3) dopamine receptor (P35462 whole entry): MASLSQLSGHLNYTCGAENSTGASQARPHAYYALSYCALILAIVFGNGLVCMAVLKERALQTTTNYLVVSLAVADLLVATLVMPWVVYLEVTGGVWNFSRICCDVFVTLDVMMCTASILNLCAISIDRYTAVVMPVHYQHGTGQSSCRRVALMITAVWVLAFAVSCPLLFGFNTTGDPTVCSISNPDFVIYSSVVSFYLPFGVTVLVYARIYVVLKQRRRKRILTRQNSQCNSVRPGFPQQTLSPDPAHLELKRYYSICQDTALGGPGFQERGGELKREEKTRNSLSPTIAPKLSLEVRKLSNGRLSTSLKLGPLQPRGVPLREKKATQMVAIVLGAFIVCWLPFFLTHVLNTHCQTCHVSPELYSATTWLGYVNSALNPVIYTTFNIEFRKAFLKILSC

[4] = biological target: T3, Muscarinic acetylcholine receptor M2 (Homo sapiens, UniProt P08172); format: functional, cell-based
T3 sequence (P08172 whole entry): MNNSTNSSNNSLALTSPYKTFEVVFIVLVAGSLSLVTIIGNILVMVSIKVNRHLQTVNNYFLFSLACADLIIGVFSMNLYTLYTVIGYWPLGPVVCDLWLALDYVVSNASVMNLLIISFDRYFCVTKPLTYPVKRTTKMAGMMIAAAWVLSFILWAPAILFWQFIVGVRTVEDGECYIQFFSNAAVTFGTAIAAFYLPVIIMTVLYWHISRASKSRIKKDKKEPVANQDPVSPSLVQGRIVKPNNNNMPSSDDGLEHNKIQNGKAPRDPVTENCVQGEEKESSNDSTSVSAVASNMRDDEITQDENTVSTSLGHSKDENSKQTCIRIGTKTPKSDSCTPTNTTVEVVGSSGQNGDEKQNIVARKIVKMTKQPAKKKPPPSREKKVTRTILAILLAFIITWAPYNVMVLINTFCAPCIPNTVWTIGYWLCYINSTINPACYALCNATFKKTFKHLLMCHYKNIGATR

[5] = biological target: 3',5'-cyclic-AMP phosphodiesterase 4D (Homo sapiens, UniProt Q08499); format: functional
Chain of 3',5'-cyclic-AMP phosphodiesterase 4D (Q08499 whole entry): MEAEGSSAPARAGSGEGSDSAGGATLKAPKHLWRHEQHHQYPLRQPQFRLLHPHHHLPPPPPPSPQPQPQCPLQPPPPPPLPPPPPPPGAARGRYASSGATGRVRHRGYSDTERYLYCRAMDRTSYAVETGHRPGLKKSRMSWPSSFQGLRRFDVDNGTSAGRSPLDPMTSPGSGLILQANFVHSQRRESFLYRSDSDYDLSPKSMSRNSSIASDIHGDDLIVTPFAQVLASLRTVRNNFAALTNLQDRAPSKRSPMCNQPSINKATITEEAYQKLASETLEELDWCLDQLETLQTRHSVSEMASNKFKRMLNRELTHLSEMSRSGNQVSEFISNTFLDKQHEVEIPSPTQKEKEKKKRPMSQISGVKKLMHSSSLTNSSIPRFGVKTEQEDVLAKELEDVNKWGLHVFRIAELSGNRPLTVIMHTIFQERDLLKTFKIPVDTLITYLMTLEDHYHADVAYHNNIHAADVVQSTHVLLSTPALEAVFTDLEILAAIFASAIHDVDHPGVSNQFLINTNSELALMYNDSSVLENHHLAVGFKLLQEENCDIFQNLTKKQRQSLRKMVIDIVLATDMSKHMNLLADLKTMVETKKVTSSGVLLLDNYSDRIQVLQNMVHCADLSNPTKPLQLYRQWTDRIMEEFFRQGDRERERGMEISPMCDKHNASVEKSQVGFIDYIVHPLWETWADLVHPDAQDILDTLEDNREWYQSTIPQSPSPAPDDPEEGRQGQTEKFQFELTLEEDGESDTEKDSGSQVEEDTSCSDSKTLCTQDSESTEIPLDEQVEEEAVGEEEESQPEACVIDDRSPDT

[6] = biological target: 5-hydroxytryptamine receptor 2B (Homo sapiens, UniProt P41595); format: functional, cell-based
Chain of 5-hydroxytryptamine receptor 2B (P41595 whole entry): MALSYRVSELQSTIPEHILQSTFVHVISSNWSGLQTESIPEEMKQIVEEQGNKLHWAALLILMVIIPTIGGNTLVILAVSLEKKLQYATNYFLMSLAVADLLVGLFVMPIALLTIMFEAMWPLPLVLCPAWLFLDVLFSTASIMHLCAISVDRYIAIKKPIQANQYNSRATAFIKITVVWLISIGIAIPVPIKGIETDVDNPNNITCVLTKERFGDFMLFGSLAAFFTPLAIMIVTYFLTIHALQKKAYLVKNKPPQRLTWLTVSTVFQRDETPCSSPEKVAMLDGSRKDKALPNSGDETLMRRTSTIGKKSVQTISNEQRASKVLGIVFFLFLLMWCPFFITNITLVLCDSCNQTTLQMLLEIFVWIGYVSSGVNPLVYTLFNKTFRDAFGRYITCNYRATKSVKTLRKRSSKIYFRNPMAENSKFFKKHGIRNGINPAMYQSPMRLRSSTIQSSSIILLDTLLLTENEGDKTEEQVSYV

[7] = biological target: T4, 5-hydroxytryptamine receptor 2C (Homo sapiens, UniProt P28335)
T4 sequence (P28335 whole entry): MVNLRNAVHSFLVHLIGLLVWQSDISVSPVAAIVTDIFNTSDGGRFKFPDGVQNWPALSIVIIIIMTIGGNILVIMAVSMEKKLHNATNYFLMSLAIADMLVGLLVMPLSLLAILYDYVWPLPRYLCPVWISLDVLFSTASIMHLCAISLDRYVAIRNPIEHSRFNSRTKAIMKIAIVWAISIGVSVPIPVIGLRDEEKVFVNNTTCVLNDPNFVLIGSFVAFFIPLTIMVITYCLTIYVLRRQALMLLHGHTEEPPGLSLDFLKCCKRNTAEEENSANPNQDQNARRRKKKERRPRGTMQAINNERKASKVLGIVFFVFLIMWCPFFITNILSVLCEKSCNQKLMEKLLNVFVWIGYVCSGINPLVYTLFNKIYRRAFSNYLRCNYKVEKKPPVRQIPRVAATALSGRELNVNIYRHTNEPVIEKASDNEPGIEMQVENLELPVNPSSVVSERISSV
Also: assay procedure not described here.

Cc1nnc2n1-c1ccc(Cl)cc1C(c1ccccc1Cl)=NC2 [TRIAZOLAM]
AC50 (Glucocorticoid receptor): > 30 µM | AC50 [1]: > 10 µM | AC50 [2]: > 10 µM | AC50 [3]: > 10 µM | AC50 (D(3) dopamine receptor): > 30 µM | AC50 [4]: > 10 µM | AC50 [5]: 33 µM | AC50 [6]: > 10 µM | AC50 [7]: > 30 µM

COc1ccc(CCNCC(O)COc2cccc(C)c2)cc1OC (stereo not drawn) [BEVANTOLOL]
AC50 (Glucocorticoid receptor): > 10 µM | AC50 [1]: 0.026 µM | AC50 [2]: 1.2 µM | AC50 (D(3) dopamine receptor): > 30 µM | AC50 [4]: > 10 µM | AC50 [5]: > 30 µM | AC50 [6]: > 10 µM | AC50 [7]: > 30 µM

CC1(C)CCC(CN2CCN(c3ccc(C(=O)NS(=O)(=O)c4ccc(NCC5CCOCC5)c([N+](=O)[O-])c4)c(Oc4cnc5[nH]ccc5c4)c3)CC2)=C(c2ccc(Cl)cc2)C1 [VENETOCLAX]
AC50 (D(3) dopamine receptor): > 30 µM | AC50 [5]: > 30 µM

O=C1C(O)=C([C@H]2CC[C@H](c3ccc(Cl)cc3)CC2)C(=O)c2ccccc21 [ATOVAQUONE]
AC50 [1]: > 30 µM | AC50 [2]: > 30 µM | AC50 [3]: > 30 µM | AC50 (D(3) dopamine receptor): > 30 µM | AC50 [4]: > 30 µM | AC50 [5]: > 30 µM | AC50 [6]: > 30 µM | AC50 [7]: > 30 µM

COc1ccc2c3c1O[C@H]1[C@@H](O)CC[C@H]4[C@@H](C2)N(C)CC[C@@]341 [DIHYDROCODEINE]
AC50 [2]: > 30 µM | AC50 [3]: > 30 µM | AC50 (D(3) dopamine receptor): > 30 µM | AC50 [5]: > 30 µM | AC50 [6]: > 30 µM | AC50 [7]: > 10 µM

Fc1ccc(C(c2ccccc2)(c2ccccc2F)n2ccnc2)cc1 (stereo not drawn) [FLUTRIMAZOLE]
AC50 (Glucocorticoid receptor): > 30 µM | AC50 [1]: > 30 µM | AC50 [2]: > 30 µM | AC50 (D(3) dopamine receptor): > 30 µM | AC50 [4]: > 30 µM | AC50 [5]: > 30 µM | AC50 [6]: > 30 µM | AC50 [7]: > 30 µM

CC/C(=C(\c1ccccc1)c1ccc(OCCN(C)C)cc1)c1ccccc1 [TAMOXIFEN]
AC50 [1]: 17.6 µM | AC50 [2]: > 10 µM | AC50 [3]: > 10 µM | AC50 (D(3) dopamine receptor): 2.9 µM | AC50 [4]: > 10 µM | AC50 [6]: > 10 µM | AC50 [7]: 7 µM

C[C@H]1COc2c(C3(N)CC3)c(F)cc3c(=O)c(C(=O)O)cn1c23 [PAZUFLOXACIN]
AC50 (Glucocorticoid receptor): > 30 µM | AC50 [1]: > 10 µM | AC50 [2]: > 10 µM | AC50 [3]: > 10 µM | AC50 (D(3) dopamine receptor): > 30 µM | AC50 [4]: > 10 µM | AC50 [5]: > 30 µM | AC50 [6]: > 10 µM | AC50 [7]: > 30 µM

CC(CC1c2ccccc2CCc2ccccc21)CN(C)C (stereo not drawn) [BUTRIPTYLINE]
AC50 [3]: > 30 µM | AC50 (D(3) dopamine receptor): 1.7 µM | AC50 [5]: > 30 µM | AC50 [6]: > 30 µM | AC50 [7]: 3 µM

NC(=O)OCC(COC(N)=O)c1ccccc1 [FELBAMATE]
AC50 (Glucocorticoid receptor): > 10 µM | AC50 [1]: > 10 µM | AC50 [2]: > 10 µM | AC50 [3]: > 10 µM | AC50 (D(3) dopamine receptor): > 10 µM | AC50 [4]: > 10 µM | AC50 [5]: > 30 µM | AC50 [6]: > 10 µM | AC50 [7]: > 30 µM

NC(=O)CN1CC(O)CC1=O (stereo not drawn) [OXIRACETAM]
AC50 (Glucocorticoid receptor): > 30 µM | AC50 [1]: > 30 µM | AC50 [2]: > 30 µM | AC50 [3]: > 30 µM | AC50 (D(3) dopamine receptor): > 30 µM | AC50 [4]: > 30 µM | AC50 [5]: > 30 µM | AC50 [6]: > 30 µM | AC50 [7]: > 30 µM

THIMEROSAL
AC50 [6]: > 30 µM

Brc1c(NC2=NCCN2)ccc2nccnc12 [BRIMONIDINE]
AC50 (Glucocorticoid receptor): > 30 µM | AC50 [1]: > 30 µM | AC50 [2]: 5 µM | AC50 (D(3) dopamine receptor): > 30 µM | AC50 [4]: > 30 µM | AC50 [5]: > 30 µM | AC50 [6]: > 30 µM | AC50 [7]: > 30 µM

Nc1nc(Cl)nc2c1ncn2[C@H]1C[C@H](O)[C@@H](CO)O1 [CLADRIBINE]
AC50 (Glucocorticoid receptor): > 30 µM | AC50 [1]: > 30 µM | AC50 [2]: > 30 µM | AC50 [3]: > 30 µM | AC50 (D(3) dopamine receptor): > 30 µM | AC50 [4]: > 30 µM | AC50 [5]: 0.97 µM | AC50 [6]: > 30 µM | AC50 [7]: > 30 µM

Cc1cc(C(C)(C)C)c(O)c(C)c1CC1=NCCN1 [OXYMETAZOLINE]
AC50 [2]: 0.0094 µM | AC50 (D(3) dopamine receptor): 20.1 µM | AC50 [4]: 23 µM | AC50 [5]: > 30 µM | AC50 [6]: 0.266 µM | AC50 [7]: 6.8 µM

Clc1ccccc1C(c1ccccc1)(c1ccccc1)n1ccnc1 [CLOTRIMAZOLE]
AC50 [1]: > 10 µM | AC50 [2]: > 10 µM | AC50 [3]: > 10 µM | AC50 (D(3) dopamine receptor): > 30 µM | AC50 [4]: > 10 µM | AC50 [6]: > 10 µM | AC50 [7]: > 30 µM

C[C@@H]1O[C@@H](O[C@@H]2C=C3CC[C@@H]4[C@H](CC[C@]5(C)[C@@H](c6ccc(=O)oc6)CC[C@]45O)[C@@]3(C)CC2)[C@H](O)[C@H](O)[C@H]1O [PROSCILLARIDIN]
AC50 (Glucocorticoid receptor): > 30 µM | AC50 [1]: > 30 µM | AC50 [2]: > 30 µM | AC50 [3]: > 30 µM | AC50 (D(3) dopamine receptor): > 30 µM | AC50 [4]: > 30 µM | AC50 [5]: > 30 µM | AC50 [6]: > 30 µM | AC50 [7]: > 30 µM

COc1cccc(C2(O)CCCCC2CN(C)C)c1 (stereo not drawn) [TRAMADOL]
AC50 (Glucocorticoid receptor): > 30 µM | AC50 [1]: > 10 µM | AC50 [2]: > 10 µM | AC50 [3]: > 10 µM | AC50 (D(3) dopamine receptor): > 10 µM | AC50 [5]: > 30 µM | AC50 [6]: > 10 µM | AC50 [7]: > 30 µM

Cc1c(OCC(F)(F)F)ccnc1C[S+]([O-])c1nc2ccccc2[nH]1 (stereo not drawn) [LANSOPRAZOLE]
AC50 (Glucocorticoid receptor): > 30 µM | AC50 [1]: > 10 µM | AC50 [2]: > 10 µM | AC50 [3]: > 10 µM | AC50 (D(3) dopamine receptor): > 10 µM | AC50 [4]: > 10 µM | AC50 [5]: > 10 µM | AC50 [6]: > 10 µM | AC50 [7]: > 10 µM

C#C[C@]1(O)CC[C@H]2[C@@H]3[C@H](C)CC4=C(CCC(=O)C4)[C@H]3CC[C@@]21C [TIBOLONE]
AC50 [1]: > 30 µM | AC50 [2]: > 30 µM | AC50 [3]: > 30 µM | AC50 (D(3) dopamine receptor): > 30 µM | AC50 [4]: > 30 µM | AC50 [5]: 6.9 µM | AC50 [6]: > 30 µM | AC50 [7]: > 30 µM

CC(C)(C)NCC(O)COc1cccc2c1CCC(=O)N2 (stereo not drawn) [CARTEOLOL]
AC50 (Glucocorticoid receptor): > 10 µM | AC50 [2]: > 10 µM | AC50 [3]: 8.8 µM | AC50 (D(3) dopamine receptor): > 30 µM | AC50 [4]: > 10 µM | AC50 [5]: > 30 µM | AC50 [6]: > 10 µM | AC50 [7]: > 30 µM
